The test system of one series is M.Furfur 7892 cells. Kind of series: Modified Fractional Inhibitory Concentration (MFIC), anti-Malassezia activity of combinations. It counts as cell-based, Malassezia furfur. The settings on record: titrated from 400 ppm; for MFIC: Table 3, chelator as Material #2 combined with the 2-pyridinol-N-oxide material at 1/2 its MIC; for Modified Fractional Inhibitory Concentration (MFIC): lowest concentration of Material #2 inhibiting growth with Material #1 (1-hydroxy-4-methyl-6-(2,4,4-trimethylpentyl)-2-pyridone monoethanolamine salt) at 1/2 its MIC, 33° C., 2 days. The procedure: A Modified Fractional Inhibitory Concentration (MFIC) is used to determine the combinatorial effects of two chemicals on anti-Malassezia activity in a tissue culture setting. […] I. […] Low levels of M.Furfur 7892 cells are inoculated into each well of a 96 well plate. • 3. […] Plates are incubated at 33° C. for 2 days. • 6. Optical densities (OD's) are then determined using a spectrophotometer. II. […] Inhibition of growth is determined if the culture optical density is less than or equal to ⅕ (20%) of the culture optical density of the untreated control • 2.

For series [1] the following is noted: from NIST Standard Reference Database 46; cited from earlier work.
A further series has as its system Malassezia furfur. Kind of series: Minimum inhibitory concentration (MIC), growth inhibition of Malassezia by culture optical density. It counts as cell-based. The settings on record: material alone, OD <= 20% of untreated control, 33° C., two days, M. Dixon medium pH 5.5, average of two replicates; for MIC: Malassezia furfur, 48 h. How it is done: To measure the growth inhibition properties of test materials against Malassezia, the following protocol is followed. The Malassezia furfur is cultured in 50 ml M. […] The pH is adjusted to 5.5 using 1N HCl. The media is autoclaved. Starting cultures are prepared by incubating freezer stocks with shaking at 33° C. The inoculum of Malassezia cells is 5.5×10^5 cfu/ml. Cells are incubated at 33° C. for two days. After the two day incubation optical density is read and background subtracted. MIC values are determined by averaging the results from two replicate experiments.

Some results are limits rather than exact numbers.

In general, MIC refers to the lowest concentration that inhibits growth of the organism. Read a high MIC as weaker potency.

For the molecule `CC(C(=O)O)N(CC(=O)O)CC(=O)O` (centres unmarked) [Methylglycine diacetic acid (MGDA), Methylglycine diacetic acid], the MFIC with M.Furfur 7892 cells is recorded as greater than 400 ppm. Further, the “Log K1 (iron binding affinity)” value in series [1] is recorded as 16.
In the case of `O=C(O)CN(CCN(CC(=O)O)CC(=O)O)CCN(CC(=O)O)CC(=O)O` [Diethylenetriaminepentaacetic acid], the “Minimum inhibitory concentration (MIC)” value with Malassezia furfur was greater than 400 ppm. Further, in the series with M.Furfur 7892 cells, the MFIC worked out at 37 ppm and the “Modified Fractional Inhibitory Concentration (MFIC)” value is reported as 37 ppm. In addition, the “Log K1 (iron binding affinity)” value in series [1] is reported as 28.
In the series on Malassezia furfur, `CC(=O)N(O)CCCCCNC(=O)CCC(=O)N(O)CCCCCNC(=O)CCC(=O)N(O)CCCCCN` [Desferrioxamine] showed an MIC greater than 400 mg/L. In addition, in the series with M.Furfur 7892 cells, the MFIC is listed as 5 ppm and the “Modified Fractional Inhibitory Concentration (MFIC)” value is 5 ppm. Besides, the “Log K1 (iron binding affinity)” value in series [1] is listed as 31.
In the case of `O=C(O)CC(O)(CC(=O)O)C(=O)O` [Citric Acid], the MFIC in the series with M.Furfur 7892 cells is greater than 400 ppm. Besides, the “Log K1 (iron binding affinity)” value in series [1] is reported as 11.
For `Cc1cc(CC(C)CC(C)(C)C)n(O)c(=O)c1.NCCO` (centres unmarked) [1-hydroxy-4-methyl-6-(2,4,4-trimethylpentyl)-2-pyridone monoethanolamine salt], in the series with Malassezia furfur, the minimum inhibitory concentration (MIC) stood at 25 mg/L.
As for `O=P(O)(O)CN(CCN(CP(=O)(O)O)CP(=O)(O)O)CCN(CP(=O)(O)O)CP(=O)(O)O` [Diethylenetriaminepentakis(methylenephosphonic acid)], the “Minimum inhibitory concentration (MIC)” value in the series on Malassezia furfur is listed as greater than 400 ppm. For the same molecule, in the series on M.Furfur 7892 cells, the MFIC turned out to be 50 ppm and the “Modified Fractional Inhibitory Concentration (MFIC)” value is reported as 50 ppm. For the same molecule, the “Log K1 (iron binding affinity)” value in series [1] is listed as 23.

Source of the values: US11529299B2, “Hair care compositions comprising a 2-pyridinol-n-oxide material and an iron chelator” (The Procter & Gamble Company, priority 2017, dated 2022).
